We go through four molecules from patent US11191850B2, “Molecular probes for detection and imaging of pancreatic cancer” (Portland State University, priority 2016, dated 2021).

“Also recorded” adds a separate entry of the source. Read-outs that look alike come from different tables or passages of the source.

Data set [1] can be described thus: UV-Vis absorption and fluorescence spectroscopy. In kind it is physicochemical. Also noted: Brightness: unit not given here. The settings on record: for pH and solvent sensitivity of UV and fluorescence spectra: 10-15 μM, aqueous 10% DMSO with HCl, NaOH or pH 7.4 buffer, various solvents; for Extinction coefficient / λmax abs: pH 7.4 phosphate buffer, 10% DMSO; for Quantum yield / λmax em / Brightness / Stokes shift: pH 7.4 buffer. From the text:
UV-Vis absorption and fluorescence spectroscopy. UV-Vis spectra were collected with a Cary 50 UV-Vis spectrophotometer at room temperature, using a 1-cm quartz cuvette. Fluorescence spectra were collected on a Cary Eclipse fluorescence spectrophotometer (Agilent Technologies). All absorbance spectra were reference corrected. Fluorescence spectra were corrected for the wavelength dependent response of the R928 photomultiplier tube using a manufacturer generated correction file. Quantum yields are reported as the average of multiple measurements using multiple references. Excitation emission matrices (EEMs) were collected over various spectral regions, using 5-nm step sizes for emission and 10-nm step sizes for excitation. The band pass for excitation and emission was 5 to 10 nm.
Probes 1-13 were screened for pH and solvent sensitivity. Solvent sensitivity or dependence is at least partially attributable to differences in the equilibria between tautomeric forms of the compounds in the various solvents evaluated. The fluorophore concentrations ranged from 10-15 μM. Aqueous solutions contained 10% DMSO and 12.5 mM HCl, 12.5 mM NaOH, or pH 7.4 phosphate buffer.

The subject of data set [2] is Capan-1 cells. In words: In vitro time-dependent fluorophore uptake. The class given is cell-based, human. The settings on record: Capan-1, 10 μM. On the procedure: (§1) Cell culture. The human PDAC cell line Capan-1 was obtained from Dr. Rosalie Sears' laboratory and maintained in RPMI medium (Gibco) in a humid atmosphere at 37° C. with 5% CO2. All media were supplemented with 10% (v/v) fetal bovine serum (FBS), and 1% (v/v) penicillin/streptomycin. The cell viability was determined by Cell Titer-Blue® assay (Promega Corporation). Monolayers of 10^4 Capan-1 cells were seeded in triplicate in 96 well plates and incubated with decreasing concentration from 100 μM of each compound in growth media containing 10% FBS. After 24 h incubation time, 20 μL of CellTiter-Blue® reagent was added into each well, and culture cells were incubated for additional 2 h. Fluorescence intensity in each well was recorded at 560/590 nm in a SpectraMax® M5 Microplate Reader (Molecular Devices, LLC). The half maximal inhibitory concentration (IC50) of these three compounds were determined from interpolating values in the graph (% cell viability vs. fluorophore concentration). For comparison of cellular uptake rate in Capan-1 cells, absorbance of media was measured as background, and absorbance of supernatant was obtained to determine the cellular uptake by using absorbance of 10 μM fluorophore in cell free media as standard reference.
In vitro time-dependent fluorophore uptake was also investigated in Capan-1 cells. […]

Data set [3] relates to Capan-1 cells. As to the kind of experiment: Subcellular localization by live cell imaging with organelle trackers. The settings on record: Capan-1, 0.5 μM, 1 h incubation. The class given is cell-based, human. The procedure:
In vitro live cell imaging. Monolayers of 10^4 Capan-1 cells were seeded in triplicate in 8 well plates and incubated for 24 h in growth media containing 10% FBS and allowed to attach. For subcellular colocalization experiments, media was extracted and cells were washed with PBS, and phenol red-free growth medium was added to each well. Organelle trackers were added to each well, and incubated with the compound (final concentration 0.5 μM) of interest for 1 h. Cells were then washed with PBS and then fixed with 2% paraformaldehyde (PFA). Fluorescence microscopy was carried out using a Zeiss inverted microscope with an Axioscan fluorescence camera for imaging. Final concentration of organelle trackers used in this experiments, DAPI (4,6-diamidino-2-phenylindole) 0.5 μM, MitoTracker® Green (benzoxazolium 2-[3-[5,6-dichloro-1,3-bis[[4-(chloromethyl)-phenyl]methyl]-1,3-dihydro-2H-benzimidazol-2-ylidene]-1-propenyl]-3-methyl-chloride 201860-17-5v, ThermoFisher Scientific) 0.5 μM, and ER-Tracker™ Green (BODIPY® FL dye and glibenclamide; ThermoFisher Scientific) 1 μM.
The subcellular localization of 2, 12 and 13 was investigated in Capan-1 cells after 1 h incubation time. […] FIGS. 6A, 7A, and 8A show the red fluorescence of the three compounds, respectively, as well as blue fluorescence with DAPI (4,6-diamidino-2-phenylindole) FIGS. 6C, 7C, 8C) and green fluorescence with organelle-specific fluorescent probes—ER-Tracker™ Green (BODIPY® FL dye and glibenclamide; ThermoFisher Scientific) (FIGS. 6E, 7E, 8E) and MitoTracker® Green (benzoxazolium 2-[3-[5,6-dichloro-1,3-bis[[4-(chloromethyl)-phenyl]methyl]-1,3-dihydro-2H-benzimidazol-2-ylidene]-1-propenyl]-3-methyl-chloride201860-17-5v; ThermoFisher Scientific) (FIGS. 6G, 7G, 8G). Also shown are composite overlays of (i) phase contrast+compound fluorescence (FIGS. 6B, 7B, 8B), (ii) DAPI+compound fluorescence (FIGS. 6D, 7D, 8D), (iii) DAPI+ER-Tracker™ Green+compound fluorescence (FIGS. 6F, 7F, 8F), and (iv) DAPI+MitoTracker® Green+compound fluorescence (FIGS. 6H, 7H, 8H).

Data set [4] relates to healthy CD-1 mice. As to the kind of experiment: In vivo biodistribution imaging after systemic administration. The settings on record: for clearance route and rate: 100 nmol i.v. (MB 120 nmol); for organ accumulation (in vivo biodistribution): 100 nmol i.v., 4 h distribution phase; for pancreas penetration / specificity: normal pancreas, systemic administration.
Description: (§2) Animals. Approval for the use of all animals in this study was obtained from the Institutional Animal Care and Use Committee (IACUC) at Oregon Health and Science University (OHSU). Male CD-1 mice weighing 22-24 g were purchased from Charles River Laboratories (Wilmington, MA). […] All animals were placed on 5V75 chlorophyll free diet from TestDiet (St. Louis, Mo.) 1 week prior to any imaging studies. Prior to surgery, mice were anaesthetized with 100 mg/kg ketamine and 10 mg/kg xylazine (Patterson Veterinary, Devens, Mass.). The peritoneal cavity was surgically exposed by removal of overlaying skin and muscle tissue to image fluorophore biodistribution following intravenous injection.
(§3) Intraoperative fluorescence imaging system. In vivo murine biodistribution images and macroscopic images of resected tissues were acquired using a custom-built small animal imaging system capable of real time color and fluorescence imaging. The imaging system consists of a QImaging EXi Blue monochrome camera (Surrey, British Columbia, Calif.) for fluorescence detection with a removable Bayer filter for collecting co-registered color and fluorescence images. A PhotoFluor II light source (89 North, Burlington, Vt.) was focused onto the surgical field through a liquid light guide and used unfiltered for white light illumination. […] All filters were obtained from Chroma technology (Bellows Falls, Vt.). Camera exposure times ranged from 50 to 200 ms for fluorescence image collection.
(§4) Systemic administration of fluorescent compounds. […] Fluorophores were diluted in PBS. For comparison with previous studies, 120 nmol Methylene Blue was injected systemically. Mice were administered blank PBS for control images (n=3 mice per group, 5 groups).
(§5) In vivo biodistribution imaging. […] The peritoneal cavity was exposed and images were collected so that the bladder, adipose tissue, intestine, kidney, liver, muscle, pancreas, spleen, and stomach were visible within the field of view. For initial biodistribution studies images were collected immediately after injection and at 5, 15, 30, 60, 120, and 240 min following injection. […] Vehicle injected control animals were imaged on the same time course as fluorophore injected animals for initial testing or immediately following injection only for studies involving MB or PDAC tumor bearing mice to assess tissue autofluorescence for comparison to injected animals.
(§6) Fluorophore biodistribution kinetics were measured using region of interest analysis on images collected of the peritoneal cavity. Mean fluorescence intensities in each organ or tissue type were measured from images collected at each time point. All intensities were normalized to the muscle intensity at that time point by dividing by the measured muscle intensity. Using the normalized fluorescence intensities for each organ or tissue type, mean intensities were calculated for each group.
(§7) Upon completion of initial biodistribution studies, animals were euthanized and their organs were resected.
Data set [5] has as its system Capan-1 cells. In words: Cell viability by CellTiter-Blue assay. The class given is cell-based, human. The settings on record: Capan-1, 24 h incubation, read-out: IC50 (cytotoxicity, cell viability). The procedure: as §1
In vitro cell viability was assessed for compounds 2, 12 and 13 in a representative PDAC cell line, Capan-1. […]

Data set [6] has as its system PDAC tumor tissue. In words: Intraoperative fluorescence imaging and ex vivo microscopy in PDAC tumor bearing mice. Further details: species or system mouse. The settings on record: 100 nmol systemic, n=5 PDAC mice, monitored over 1.5 h. On the procedure: Systemic administration of fluorescent compounds. […] Fluorophores were diluted in PBS.
In vivo biodistribution imaging.
Ex vivo fluorescence microscopy, pathology, and immunofluorescence staining. Resected pancreas tissue from compound 12 in vivo biodistribution studies with PDAC tumor bearing mice was fixed with 2% PFA for 12 h, flash frozen in optimal cutting temperature (OCT) compound with liquid nitrogen, and stored at −80° C. Cryosections were cut at 10 μm onto Superfrost Plus slides (Fisherbrand, Fisher Scientific). Slides were mounted with Fluoromount-G (Southern Biotech, Birmingham, Ala.) and coverslipped. […] Images were acquired on an Axio Observer inverted fluorescence microscope (Zeiss, Thornwood, N.Y.) at 10, 20, or 40× magnification. […] Color images were collected using an Axiocam 105 camera (Zeiss) and fluorescence images were collected using an Axiocam 506 camera (Zeiss) where a 605±35 nm or 525±25 nm bandpass emission filter was used for compound 12 or Atto 488 fluorescence image collection, respectively.
Compound 12 was systemically administered to n=5 genetically modified PDAC mice. Pancreas specific fluorescence was monitored over 1.5 h. […] FIGS. 12B and 12C show real-time intraoperative fluorescence imaging of compound 12 in the PDAC mice. […]

Data set [7] has as its system pancreas tissue. In words: Ex vivo staining of pancreas tissue from healthy and PDAC mice. Further details: species or system mouse. An excerpt: Thus 12 enabled ex vivo staining to distinguish the features of healthy and PDAC tissue.
For data set [8], the system named is healthy CD-1 mice. The settings on record: mouse, in vivo, iv.
Description: as §2, §3, §4, §5, §6, §7

Regarding `COC(=O)c1ccccc1-c1c2ccc(=O)cc-2oc2c1ccc1cccc(OC)c12` [Compound 2], the “pH and solvent sensitivity of UV and fluorescence spectra” value (from here on “pH and solvent sensitivity”) in data set [1] is listed as “not affected by either solvent changes or by solution pH values above 2”. Also, in data set [1] (methyl ether derivatives), the Extinction coefficient is reported as 15,610 M^−1 · cm^−1. Moreover, the “fluorophore uptake within 30 min of application (ranking)” value in data set [2] is given as “the lowest”. The “site of intracellular localization” value in data set [3] is “within vesicular structures”. Further, in data set [4], the “clearance route and rate” value was “significant renal clearance; also recorded: faster renal clearance than compounds 12 and 13”; the “organ accumulation (in vivo biodistribution)” value (“organ accumulation” for short) was “preferentially accumulated in the pancreas, intestine and bladder”; the “pancreas penetration / specificity” value is reported as “improved pancreas specificity”.
`COC(=O)c1ccccc1C1=c2cc3c4c(c2Oc2c1ccc1cccc(N)c21)CCC[N+]=4CCC3` [Compound 13, 15-amino-9-(2-(methoxycarbonyl)phenyl)-1,2,3,5,6,7-hexahydrobenzo[7,8]chromeno[2,3-f]pyrido[3,2,1-ij]quinolin-4-ium chloride]: the “pH and solvent sensitivity” value in data set [1] is “not pH dependent, but were modestly solvent sensitive”. Also, in data set [1] (excited at 630 nm), the Quantum yield is given as 0.66% and the λmax em was 740 nm. Further, in data set [1] (seminaphthorhodamines), the Brightness stood at 85, the Stokes shift worked out at 139 nm, the Extinction coefficient stood at 12808 M⁻¹ cm⁻¹ and the λmax abs stood at 601 nm. In addition, the IC50 in data set [5] is 26.1 µM. The “fluorophore uptake within 30 min of application (ranking)” value in data set [2] is reported as “greatest fluorophore uptake”. Besides, the “site of intracellular localization” value in data set [3] was “extensive accumulation in the mitochondria”. In addition, in data set [4], the “clearance route and rate” value is on record as “cleared more slowly than compound 2”; the “organ accumulation” value was “accumulated largely in the kidneys”; the “pancreas penetration / specificity” value is reported as “diminished pancreas accumulation”.
Regarding `COC(=O)c1ccccc1C1=c2cc3c4c(c2Oc2c1ccc1cccc(OC)c21)CCC[N+]=4CCC3` [Compound 12, 15-methoxy-9-(2-(methoxycarbonyl)phenyl)-1,2,3,5,6,7-hexahydrobenzo[7,8]chromeno[2,3-f]pyrido[3,2,1-ij]quinolin-4-ium chloride], the “pH and solvent sensitivity” value in data set [1] is “insensitive to variations in pH or solvent”. In data set [1] (excited at 480 nm), this molecule returned a Quantum yield of 11.38% and a λmax em of 622 nm. In data set [1] (methyl ether derivatives), the Brightness stood at 2022, the Stokes shift is reported as 40 nm, the Extinction coefficient was determined as 17764 M⁻¹ cm⁻¹ and the λmax abs was 582 nm. The IC50 in data set [5] stood at 17.8 µM. Also, in data set [3], the “site of intracellular localization” value is given as “extensive accumulation in the mitochondria”. In data set [6], the “accumulation in PDAC tumor tissue vs surrounding tissue” value was “significantly higher than in the surrounding healthy tissue; also recorded: significantly higher than in the surrounding tissues and specific for the malignant cells”. Moreover, the “ex vivo staining localization, cancerous (PDAC) tissue” value in data set [7] (PDAC mouse pancreas) was “localized in the PDAC-associated ductal epithelial cells”. Further, in data set [7] (healthy mouse pancreas), the “ex vivo staining localization, healthy mouse pancreas tissue” value is given as “uptake of 12 in its abundant acinar cell population”. In addition, in data set [4], the “clearance route and rate” value is “both renal and hepatic clearance; also recorded: cleared more slowly than compound 2; also recorded: greater hepatic excretion rate”; the “organ accumulation” value is “accumulated in the kidney, pancreas, and intestine”; the “pancreas penetration / specificity” value is on record as “improved pancreas specificity”. The “fluorescence SBR in the pancreas compared to surrounding organs” value in data set [4] (4-h time point) was “highest and most persistent fluorescence SBR in the pancreas”. In addition, the “uptake in normal pancreas tissue relative to MB” value in data set [4] (12 100 nmol vs MB 120 nmol, i.v.) turned out to be 4 fold.
In the case of `CN(C)c1ccc2nc3ccc(=[N+](C)C)cc-3sc2c1` [MB, methylene blue, reference compound], the “clearance route and rate” value in data set [8] is “preferentially and rapidly cleared through the renal system”. In addition, the “pancreas penetration / specificity” value in data set [4] is “poor penetration into normal pancreas tissue; also recorded: diminished pancreas accumulation”.
